Counter-ions that a name gives are not always drawn. Activity calls are given as the source filed them.

Assay [1] addresses T1, Oxysterols receptor LXR-beta (Homo sapiens, UniProt P55055).
T1 sequence (P55055 whole entry): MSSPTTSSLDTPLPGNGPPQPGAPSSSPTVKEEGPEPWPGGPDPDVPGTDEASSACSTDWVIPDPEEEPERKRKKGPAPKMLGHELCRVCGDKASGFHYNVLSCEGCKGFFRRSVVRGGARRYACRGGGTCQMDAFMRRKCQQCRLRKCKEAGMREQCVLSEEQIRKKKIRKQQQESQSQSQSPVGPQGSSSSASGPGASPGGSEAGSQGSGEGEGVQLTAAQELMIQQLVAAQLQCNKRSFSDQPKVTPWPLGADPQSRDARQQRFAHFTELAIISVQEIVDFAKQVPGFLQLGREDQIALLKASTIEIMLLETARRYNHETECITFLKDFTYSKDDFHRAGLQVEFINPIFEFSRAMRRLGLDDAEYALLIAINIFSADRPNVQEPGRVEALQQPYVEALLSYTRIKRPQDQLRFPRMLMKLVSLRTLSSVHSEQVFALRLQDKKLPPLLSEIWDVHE
The class given is functional, cell-based.

Assay [2] can be described thus: cells.
In a further assay the target is T2, Protein skinhead-1 (Caenorhabditis elegans, UniProt P34707).
T2 sequence (P34707 whole entry): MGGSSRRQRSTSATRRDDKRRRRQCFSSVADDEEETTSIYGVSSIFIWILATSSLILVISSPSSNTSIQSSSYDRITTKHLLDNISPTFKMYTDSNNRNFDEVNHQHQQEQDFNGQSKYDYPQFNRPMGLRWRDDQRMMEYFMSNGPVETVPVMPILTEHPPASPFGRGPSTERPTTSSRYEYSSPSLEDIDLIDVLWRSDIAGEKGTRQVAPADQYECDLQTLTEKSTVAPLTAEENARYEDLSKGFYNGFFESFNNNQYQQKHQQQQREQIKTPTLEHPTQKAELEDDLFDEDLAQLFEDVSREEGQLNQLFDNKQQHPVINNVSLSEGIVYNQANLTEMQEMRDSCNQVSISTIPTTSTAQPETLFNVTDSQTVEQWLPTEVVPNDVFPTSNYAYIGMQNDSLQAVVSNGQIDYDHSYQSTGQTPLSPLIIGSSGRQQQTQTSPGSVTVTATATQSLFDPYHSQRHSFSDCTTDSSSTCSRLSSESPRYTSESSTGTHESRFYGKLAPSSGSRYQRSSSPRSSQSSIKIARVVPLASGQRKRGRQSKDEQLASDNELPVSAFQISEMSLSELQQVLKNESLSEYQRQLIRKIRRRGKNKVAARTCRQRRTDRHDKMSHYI
The class given is functional.

For assay [3], the target named is Voltage-dependent T-type calcium channel subunit alpha-1H (Homo sapiens, UniProt O95180). The format is functional.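 Further: channel activity triggered by adding a high calcium stimulation buffer.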
A short description of assay [4]: inhibitors of intracellular T. cruzi replication, confirmation, NIH3T3 host cells, beta-gal luminescence (AID 2044).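 Further: intracellular parasites grown in NIH/3T3 mouse fibroblasts as host cells; luminescent beta-galactosidase reporter signal from transgenic T. cruzi replicating inside host cells; inhibitors lower the luminescence signal.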 The format is functional, cell-based.
The nature of assay [5]: cells. The source holds these as a separate data set.
The nature of assay [6]: cytotoxicity toward NIH3T3 fibroblasts, dose response, counter-screen, cell-based, ATP luminescence, mouse fibroblasts (AID 2010).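 Further: cells exposed to compound for about 90 hours before reading.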 The class given is functional. (In general: The purpose of a counterscreen is to sort out artefacts and off-target activity.)
A further assay has as its target Cytochrome P450 2C19 (Homo sapiens, UniProt P33261). Nature of the assay: qHTS Assay for Inhibitors and Substrates of Cytochrome P450 2C19. [Related pubchem assays: 410 ]. The format is ADME. Particulars: read-out: Potency.
The target in assay [7] is T3, Mannose-6-phosphate isomerase (Homo sapiens, UniProt P34949).
T3 sequence (P34949 whole entry): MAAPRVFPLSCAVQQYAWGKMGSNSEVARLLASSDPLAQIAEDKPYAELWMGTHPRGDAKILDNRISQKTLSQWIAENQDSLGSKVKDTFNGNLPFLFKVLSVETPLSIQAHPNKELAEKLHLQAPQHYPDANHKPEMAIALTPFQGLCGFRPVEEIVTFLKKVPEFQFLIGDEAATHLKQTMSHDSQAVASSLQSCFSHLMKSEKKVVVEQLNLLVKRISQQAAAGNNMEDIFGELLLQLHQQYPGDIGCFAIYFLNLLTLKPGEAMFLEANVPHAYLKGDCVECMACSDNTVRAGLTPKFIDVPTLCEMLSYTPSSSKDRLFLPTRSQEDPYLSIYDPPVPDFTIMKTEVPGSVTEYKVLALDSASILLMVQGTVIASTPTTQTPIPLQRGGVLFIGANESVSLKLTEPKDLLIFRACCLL
Briefly: inhibitors of human PMI, primary screen, biochemical, fluorescence intensity, coupled assay (AID 1209).

The target of assay [8] is T3, Mannose-6-phosphate isomerase. Briefly: human PMI inhibitors, high substrate, primary screen, biochemical, fluorescence intensity, high mannose 6-phosphate (AID 1220).
Assay [9] in a line: P. falciparum Dd2 growth inhibitors, dose response, SYBR Green, cherry-picked samples (AID 1159567). The class given is functional, cell-based.
A short description of assay [10]: HepG2 cell cytotoxicity, dose response, cytotoxicity control, cherry-picked samples (AID 1159577). The class given is functional, cell-based.
Assay [11] in a line: Dose-response inhibition of insulin secretion in a rat insulinoma line at 5 mM glucose (AID 1117331). To be noted: INS-1E. The class given is functional, cell-based.
Assay [12] concerns the target T4, Polyadenylate-binding protein 1 (Homo sapiens, UniProt P11940). Briefly: PABP1 MLLE–PAM2 binding inhibitor potency, dose response, biochemical, fluorescence polarization, FITC-PAM2 peptide (AID 602259). The class given is functional. To be noted: read-out: IC50_Mean. Background: Fluorescence polarisation rises when a labelled molecule tumbles more slowly, as on binding a larger partner.

Assay [13] deals with T4, Polyadenylate-binding protein 1. Nature of the assay: PABP1 MLLE–PAM2 interaction inhibitors, dose response, miRNA deadenylation inhibitor project, biochemical, fluorescence polarization, Cy5-PAM2 peptide, secondary (AID 602260). The format is functional. To be noted: read-out: IC50_Mean.
The target of assay [14] is T5, Neuropeptide Y receptor type 1 (Homo sapiens, UniProt P25929).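 Further: HEK293 cells with a CNG channel challenged with NPY then isoproterenol; potency as antagonist that reverses NPY suppression of cAMP signal.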
T5 sequence (P25929 whole entry): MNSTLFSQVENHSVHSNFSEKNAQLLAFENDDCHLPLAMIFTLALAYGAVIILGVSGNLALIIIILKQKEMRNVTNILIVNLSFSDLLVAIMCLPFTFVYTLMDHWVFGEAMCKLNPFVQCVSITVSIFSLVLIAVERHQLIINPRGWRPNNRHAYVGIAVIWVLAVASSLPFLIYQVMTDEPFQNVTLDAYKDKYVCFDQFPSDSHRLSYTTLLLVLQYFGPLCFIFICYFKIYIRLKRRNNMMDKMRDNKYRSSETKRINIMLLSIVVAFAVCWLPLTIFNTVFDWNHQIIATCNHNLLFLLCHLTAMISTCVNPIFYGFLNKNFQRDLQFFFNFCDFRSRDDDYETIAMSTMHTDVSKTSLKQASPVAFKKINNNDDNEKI
The format is functional.

Assay [15] concerns the target T6, Neuropeptide Y receptor type 2 (Homo sapiens, UniProt P49146).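 Further: HEK293 cells expressing the receptor and a CNG channel; stimulus was NPY near EC95 followed by isoproterenol to raise cAMP; antagonist potency measured as restoring cAMP signal that NPY suppresses.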
T6 sequence (P49146 whole entry): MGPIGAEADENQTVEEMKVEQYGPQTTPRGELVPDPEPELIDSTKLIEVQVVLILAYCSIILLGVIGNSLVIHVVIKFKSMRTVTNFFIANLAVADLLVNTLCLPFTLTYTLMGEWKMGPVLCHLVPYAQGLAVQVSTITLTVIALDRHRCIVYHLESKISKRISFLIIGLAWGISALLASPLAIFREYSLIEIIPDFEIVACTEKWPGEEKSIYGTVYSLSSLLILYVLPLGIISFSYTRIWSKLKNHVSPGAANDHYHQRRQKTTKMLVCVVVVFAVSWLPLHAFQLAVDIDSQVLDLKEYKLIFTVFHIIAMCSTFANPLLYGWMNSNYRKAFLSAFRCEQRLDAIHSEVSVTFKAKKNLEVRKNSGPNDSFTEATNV
The format is functional, cell-based.

Assay [16] deals with T7, Histone-lysine N-methyltransferase NSD2 (Homo sapiens, UniProt O96028).
T7 sequence (O96028 whole entry): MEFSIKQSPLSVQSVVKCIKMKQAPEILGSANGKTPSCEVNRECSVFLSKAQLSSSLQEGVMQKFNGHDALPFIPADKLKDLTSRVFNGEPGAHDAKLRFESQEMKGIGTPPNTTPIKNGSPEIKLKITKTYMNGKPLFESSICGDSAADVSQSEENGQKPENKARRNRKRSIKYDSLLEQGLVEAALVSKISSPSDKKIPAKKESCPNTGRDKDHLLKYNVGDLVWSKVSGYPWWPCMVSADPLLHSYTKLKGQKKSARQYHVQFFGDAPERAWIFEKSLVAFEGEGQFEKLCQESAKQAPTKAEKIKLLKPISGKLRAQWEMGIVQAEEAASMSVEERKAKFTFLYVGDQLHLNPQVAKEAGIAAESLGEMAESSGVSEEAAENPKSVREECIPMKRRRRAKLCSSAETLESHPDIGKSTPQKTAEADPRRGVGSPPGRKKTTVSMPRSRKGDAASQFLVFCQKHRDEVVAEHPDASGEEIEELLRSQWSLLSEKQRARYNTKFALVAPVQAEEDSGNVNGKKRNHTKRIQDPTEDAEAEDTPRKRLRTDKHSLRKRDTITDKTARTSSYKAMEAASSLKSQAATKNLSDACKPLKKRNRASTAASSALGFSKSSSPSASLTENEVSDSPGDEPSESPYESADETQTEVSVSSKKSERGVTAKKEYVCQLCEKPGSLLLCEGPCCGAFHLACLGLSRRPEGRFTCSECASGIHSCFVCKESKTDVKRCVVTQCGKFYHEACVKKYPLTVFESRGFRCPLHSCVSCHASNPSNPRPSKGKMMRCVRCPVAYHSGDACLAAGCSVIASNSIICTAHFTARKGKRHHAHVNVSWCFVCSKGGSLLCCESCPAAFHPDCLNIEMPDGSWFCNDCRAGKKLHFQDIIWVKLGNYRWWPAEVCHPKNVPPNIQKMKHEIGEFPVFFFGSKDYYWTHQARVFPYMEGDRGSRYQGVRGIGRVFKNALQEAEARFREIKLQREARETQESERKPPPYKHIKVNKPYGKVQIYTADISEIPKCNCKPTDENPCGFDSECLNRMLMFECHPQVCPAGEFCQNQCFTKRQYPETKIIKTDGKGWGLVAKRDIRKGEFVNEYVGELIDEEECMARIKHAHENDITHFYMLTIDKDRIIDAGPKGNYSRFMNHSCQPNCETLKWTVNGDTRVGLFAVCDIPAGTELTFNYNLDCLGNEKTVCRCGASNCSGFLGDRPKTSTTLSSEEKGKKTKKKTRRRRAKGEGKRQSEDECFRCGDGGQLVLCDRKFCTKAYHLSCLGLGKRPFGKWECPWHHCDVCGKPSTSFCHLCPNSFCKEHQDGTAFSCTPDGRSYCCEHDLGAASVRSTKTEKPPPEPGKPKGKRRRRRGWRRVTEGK
The class given is biochemical.

Cytochrome P450 2C19, sequence (P33261 whole entry): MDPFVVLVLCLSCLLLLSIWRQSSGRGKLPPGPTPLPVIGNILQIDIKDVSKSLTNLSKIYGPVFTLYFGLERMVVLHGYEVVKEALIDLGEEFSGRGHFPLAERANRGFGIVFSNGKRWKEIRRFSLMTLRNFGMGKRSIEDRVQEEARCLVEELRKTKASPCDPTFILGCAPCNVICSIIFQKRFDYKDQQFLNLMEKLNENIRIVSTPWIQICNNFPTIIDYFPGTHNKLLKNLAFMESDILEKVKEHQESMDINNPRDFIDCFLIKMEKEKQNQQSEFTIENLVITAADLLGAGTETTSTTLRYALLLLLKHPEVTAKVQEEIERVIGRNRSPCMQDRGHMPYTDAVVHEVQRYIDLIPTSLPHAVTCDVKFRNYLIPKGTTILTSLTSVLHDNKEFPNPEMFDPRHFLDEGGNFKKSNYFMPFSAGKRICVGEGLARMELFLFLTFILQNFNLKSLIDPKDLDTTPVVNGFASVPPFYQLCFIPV
T4 sequence (P11940 whole entry): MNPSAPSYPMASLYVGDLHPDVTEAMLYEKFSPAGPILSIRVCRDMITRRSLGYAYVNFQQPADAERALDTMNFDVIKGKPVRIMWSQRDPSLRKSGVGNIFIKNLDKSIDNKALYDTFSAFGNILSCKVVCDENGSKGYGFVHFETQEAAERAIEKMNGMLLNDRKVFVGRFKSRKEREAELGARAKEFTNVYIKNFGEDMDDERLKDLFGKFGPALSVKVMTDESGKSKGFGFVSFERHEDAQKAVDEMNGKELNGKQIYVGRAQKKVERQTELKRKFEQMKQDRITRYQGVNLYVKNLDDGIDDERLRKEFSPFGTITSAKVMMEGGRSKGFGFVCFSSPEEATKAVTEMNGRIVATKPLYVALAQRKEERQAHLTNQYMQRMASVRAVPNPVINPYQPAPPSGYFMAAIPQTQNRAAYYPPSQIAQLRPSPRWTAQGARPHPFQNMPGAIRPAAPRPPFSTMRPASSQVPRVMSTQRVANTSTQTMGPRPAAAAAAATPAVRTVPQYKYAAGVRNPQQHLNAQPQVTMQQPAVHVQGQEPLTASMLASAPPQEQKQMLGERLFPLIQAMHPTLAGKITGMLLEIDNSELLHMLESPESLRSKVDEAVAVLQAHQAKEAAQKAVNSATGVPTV
Voltage-dependent T-type calcium channel subunit alpha-1H, sequence (O95180 whole entry): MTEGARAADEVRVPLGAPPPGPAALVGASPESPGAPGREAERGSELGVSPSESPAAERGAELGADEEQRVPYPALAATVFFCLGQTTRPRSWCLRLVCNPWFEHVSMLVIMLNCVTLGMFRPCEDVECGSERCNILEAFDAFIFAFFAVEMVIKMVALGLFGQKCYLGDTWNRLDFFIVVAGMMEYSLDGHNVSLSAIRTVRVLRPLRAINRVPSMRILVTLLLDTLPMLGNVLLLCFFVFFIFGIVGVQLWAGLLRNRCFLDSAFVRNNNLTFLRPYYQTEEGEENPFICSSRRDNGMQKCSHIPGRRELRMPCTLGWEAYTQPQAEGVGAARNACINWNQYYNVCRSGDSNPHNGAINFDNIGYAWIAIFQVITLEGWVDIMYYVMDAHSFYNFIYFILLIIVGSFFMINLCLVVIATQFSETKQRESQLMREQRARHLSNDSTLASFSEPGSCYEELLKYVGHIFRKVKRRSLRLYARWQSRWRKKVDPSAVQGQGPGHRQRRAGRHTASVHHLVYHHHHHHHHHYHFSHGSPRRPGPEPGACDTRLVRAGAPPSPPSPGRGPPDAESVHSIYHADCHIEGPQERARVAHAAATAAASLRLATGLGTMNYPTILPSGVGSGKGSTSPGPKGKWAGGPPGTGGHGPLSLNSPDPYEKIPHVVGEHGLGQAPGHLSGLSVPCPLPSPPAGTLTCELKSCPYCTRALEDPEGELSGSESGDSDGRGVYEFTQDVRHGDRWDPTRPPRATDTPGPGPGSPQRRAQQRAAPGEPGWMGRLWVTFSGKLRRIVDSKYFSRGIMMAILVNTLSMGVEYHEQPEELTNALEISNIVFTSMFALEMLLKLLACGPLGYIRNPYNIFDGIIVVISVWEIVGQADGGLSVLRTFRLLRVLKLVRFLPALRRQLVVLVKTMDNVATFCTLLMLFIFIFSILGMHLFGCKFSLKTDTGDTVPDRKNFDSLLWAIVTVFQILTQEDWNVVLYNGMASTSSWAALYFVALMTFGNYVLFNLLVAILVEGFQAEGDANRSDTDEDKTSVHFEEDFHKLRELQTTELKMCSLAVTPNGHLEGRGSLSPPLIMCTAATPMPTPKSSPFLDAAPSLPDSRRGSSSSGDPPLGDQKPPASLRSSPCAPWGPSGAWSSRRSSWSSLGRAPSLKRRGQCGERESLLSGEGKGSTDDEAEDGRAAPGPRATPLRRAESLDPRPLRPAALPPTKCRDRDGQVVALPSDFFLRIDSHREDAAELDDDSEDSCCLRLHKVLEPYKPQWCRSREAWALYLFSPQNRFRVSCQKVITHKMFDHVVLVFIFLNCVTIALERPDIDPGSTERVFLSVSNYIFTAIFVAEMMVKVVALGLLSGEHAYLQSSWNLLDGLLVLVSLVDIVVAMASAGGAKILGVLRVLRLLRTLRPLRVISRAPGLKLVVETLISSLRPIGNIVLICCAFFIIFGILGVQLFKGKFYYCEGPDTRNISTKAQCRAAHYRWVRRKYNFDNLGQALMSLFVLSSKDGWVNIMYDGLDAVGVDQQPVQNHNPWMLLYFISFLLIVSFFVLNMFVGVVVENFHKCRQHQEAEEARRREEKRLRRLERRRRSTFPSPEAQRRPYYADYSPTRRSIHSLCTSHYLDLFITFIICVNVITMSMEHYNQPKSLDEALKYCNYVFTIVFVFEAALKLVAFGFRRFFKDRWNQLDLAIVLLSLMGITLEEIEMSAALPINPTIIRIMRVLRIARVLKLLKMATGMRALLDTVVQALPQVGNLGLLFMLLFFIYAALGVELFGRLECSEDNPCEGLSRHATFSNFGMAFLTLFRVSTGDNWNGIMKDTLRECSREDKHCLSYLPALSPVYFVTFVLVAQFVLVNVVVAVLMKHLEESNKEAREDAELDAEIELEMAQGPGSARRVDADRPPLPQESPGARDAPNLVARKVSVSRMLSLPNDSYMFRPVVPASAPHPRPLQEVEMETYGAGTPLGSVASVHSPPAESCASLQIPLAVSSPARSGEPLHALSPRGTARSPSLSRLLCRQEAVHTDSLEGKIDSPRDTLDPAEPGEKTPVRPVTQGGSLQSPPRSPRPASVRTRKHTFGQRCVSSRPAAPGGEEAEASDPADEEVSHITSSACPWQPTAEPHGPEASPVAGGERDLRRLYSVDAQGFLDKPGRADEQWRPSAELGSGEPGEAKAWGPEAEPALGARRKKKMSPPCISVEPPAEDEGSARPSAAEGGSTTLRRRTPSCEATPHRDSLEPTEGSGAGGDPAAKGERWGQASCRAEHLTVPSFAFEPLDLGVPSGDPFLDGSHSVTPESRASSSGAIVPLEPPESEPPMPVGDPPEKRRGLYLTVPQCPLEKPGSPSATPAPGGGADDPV

Consider `c1ccc(Nc2nc(-c3cccs3)cs2)nc1`, for which the EC50 in assay [1] is > 67.5 µM (inactive); in the assay “cells [2]” it was > 67.5 µM (inactive); in [3] it was 9.21 µM (active). Besides, the IC50 at Protein skinhead-1 was 15.6 µM (active).
Regarding `Cc1cc(C(=O)N(C)CC2CCCN(CCc3ccc(F)cc3)C2)c(C)o1` (configuration not stated), the EC50 was < 0.1 µM (active) in assay [4], 0.279 µM (active) in “cells [5]” and > 60 µM (not active) in assay [6].
Turning to `COc1ccc(/C=C/C(=O)c2ccc(OC)cc2O)cc1`, on Cytochrome P450 2C19, the AC50 was 0.398 µM (inconclusive).
Consider `O=C(O)/C=C/C(=O)Nc1ccc2c(c1)NC(=O)CO2`, for which the IC50 in [7] and in assay [8] was > 50 µM (not active) each time.
Consider `CCOC(=O)OCC1OC(CCc2ccccc2)CCC1Oc1ccc(OC)cc1` (configuration not stated), for which the AC50 at Cytochrome P450 2C19 is 2.51 µM (inconclusive).
On to `COc1ccc(S(=O)(=O)N(C)C[C@H]2Oc3c(NC(=O)Nc4ccccc4)cccc3C(=O)N([C@@H](C)CO)C[C@H]2C)cc1`, for which the AC50 in assay [9] was 4.8 µM (active); in assay [10], 33.8 µM (active).
On to `COc1ccc2c3c([nH]c2c1)[C@@H](CO)N(C(=O)Nc1ccc(F)cc1)CC31CN(Cc2cc(F)ccc2F)C1`, for which the AC50 in assay [10] is 18.8 µM (active).
As for `CC(=O)c1ccc2c(c1)N(CCCN(C)C)c1ccccc1S2` [ACEPROMAZINE MALEATE], the IC50 is 11.4 µM (inactive) in [11], > 66 µM (inactive) in assay [12] and > 66 µM (inactive) in assay [13].
For `Cc1ccc2nc(N(CCCN(C)C)C(=O)c3ccco3)sc2c1`, the figures for the EC50 (in assay [4]; in the assay “cells [5]”; in assay [6]) were < 0.1 µM (active), 0.036 µM (active) and > 60 µM (not active), respectively.
In the case of `O=C(NCCc1c[nH]c2ccccc12)c1cc([N+](=O)[O-])cc([N+](=O)[O-])c1`, the EC50 is < 0.1 µM (active) in assay [4], 0.264 µM (active) in the assay “cells [5]” and > 60 µM (not active) in [6].
With `CCOc1cc2c(C#N)c(N3CCOCC3)nc(N)c2c(N)n1`, the IC50 in assay [7] and in assay [8] was > 50 µM (not active) each time.
For `c1ccc(-c2csc(Nc3ccccn3)n2)cc1`, the EC50 (in assay [1]; in “cells [2]”) was > 67.5 µM (inactive) in each case. The IC50 at Protein skinhead-1 is 18 µM (active).
Consider `O=C(COC(=O)/C=C/c1ccc(Cl)cc1)Nc1ccccc1-c1ccccc1`, for which the IC50 was 6.13 µM (active) in [14] and 8.06 µM (active) in [15].
On to `S=C(NCCc1ccccc1)N/N=C/c1ccccc1Cl`, for which the IC50 in assay [14] was 5.02 µM (active); in [15], 5.07 µM (active).
On to `CCC(Oc1ccc2c(=O)c(-c3ccccc3OC)coc2c1)C(=O)OCc1ccccc1` (configuration not stated), for which the values for the IC50 in [14] and in assay [15] were 11.5 µM (not active) and 4.12 µM (active), respectively.
In the case of `C(=N/Nc1cc(N2CCOCC2)nc(N2CCOCC2)n1)/c1ccccc1`, the AC50 in assay [16] is > 20 µM (inactive). Also, the IC50 in assay [7] and in assay [8] was > 50 µM (not active) each time.

Usually EC50 stands for the concentration giving half of the maximal effect.

For the origin of these results see ChEMBL document CHEMBL1201862, “PubChem BioAssay data set” (2004).
